Data from patent US20240197761A1, “FUCOSYLATION AND IMMUNE MODULATION IN CANCER” (H. LEE MOFFITT CANCER CENTER AND RESEARCH INSTITUTE, INC., priority 2021, published 2024).
Entries after “also recorded” stand apart in the source; their conditions may differ.

Assays:
[1] = test system: SW1 tumors; assay: Anti-PD-1 mouse model, SW1; type: in vivo, C3H/HeN mice
Source text: FIGS. 21A and 21B Administration of combination L-fucose and anti-PD-1 suppresses tumors and increases intra-tumoral CD4+T central and effector memory cells (a) Volumetric growth curves for SW1 tumors in C3H/HeN mice (left) and SM1 tumors in C57BL/6 mice (right) fed L-fucose (LF) and treated with PBS (control) or anti-PD-1. (concurrent initiation of LF anti-PD1 (▾)). The tumor growth curves are means±SEM from ≥7 mice per group. (b) Volumetric growth curves for SM1 tumors in C57BL/6 mice fed ±L-fucose (LF) and treated with PBS (control) or anti-PD-1 (PD-1). (concurrent initiation of LF±PD1 (▾)). The tumor growth curves are means±SEM from ≥7 mice per group. *=p<0.05. At Day 7 (prior to administration of LF or PD1), Day 21 (endpoint for tumors of control-treated mice), Day 31 (endpoint for tumors of LF-treated mice), Day 63 (endpoint for tumors of PD1-treated mice), the primary tumors (Tumor) and draining lymph nodes (LN) of 4-5 mice per treatment group were analyzed by flow cytometry for intratumor levels of CD4+ and CD8+T subpopulations (naive/terminal, stem central/central/effector memory) and dendritic cell (DC) subpopulations (cDC1, cDC2, and monocyte-derived DC (moDC)) as in FIG. 15. Proportions of CD4+, CD8+, and DC subpopulations in each organ at each timepoints are represented by the color-coded pie charts (each pie chart represents 4-5 mice). […]

[2] = test system: SW1 tumors (shNT, shH2K1, shEB1, EB1 WT or N46G); assay: H2K1/EB1 knockdown and glyco-fucomutant EB1 reconstitution mouse model; type: in vivo, C3H/HeN mice
Source text: All animals were housed at the Vincent A. Stabile Research building animal facility at H. Lee Moffitt Cancer Center & Research Institute, which is fully accredited by the Association for Assessment and Accreditation of Laboratory Animal Care International (AAALAC, #434), and are managed in accordance with the Guide for the Care and Use of Laboratory Animals (“The Guide”), the Animal Welfare Regulations Title 9 Code of Federal Regulations Subchapter A, “Animal Welfare”, Parts 1-3 (AWR), the Public Health Service Policy on Humane Care and Use of Laboratory Animals (PHS Policy), and by the USF Institutional Animal Care and Use Committee's Principles and Procedures of Animal Care and Use (IACUC Principles). The experiments and protocols detailed in this study received institutional approval by the Moffitt IACUC (RIS00001625). Four-to-six-week-old female C3H/HeN and male C57BL6 mice were purchased from Charles Rivers Laboratories for the indicated experiments. Four-to-six-week-old male NSG mice from the Lau laboratory breeding colony were used for the indicated experiments. Power calculations were used to determine mouse cohort sizes to detect significant changes in tumor sizes. In general, 10 mice per indicated cohort to accommodate for incidental loss of mice due to issues beyond our control (e.g., incidental tumor ulceration that required exclusion from the study). Mouse tumor volumes were measured using length, width and depth divided by 2. At each experimental endpoint, mice were humanely euthanized using CO2 inhalation in accordance to the American Veterinary Medical Association guidelines. […] For all mouse models, 1×10^6 melanoma cells were injected subcutaneously in the right hind flanks of each mouse. Between 7-14 days, when the tumor volumes reached ˜150 mm^3, the mice were either supplemented with or without 100 mM L-fucose (Biosynth (Oak Terrace, IL)) via drinking water, which was provided ad libitum. When the tumors reached ˜2 cm^3, the animals were sacrificed, and the tumors either processed for flow cytometric profiling or for histological analysis as indicated. […]

[3] = test system: MDSCs co-cultured with T cells; assay: MDSC immunosuppression of T cell proliferation (Cell Trace Violet) and IFNγ release/production in co-culture; type: cell-based, mouse; conditions: for T cell proliferation with pretreated splenic MDSCs: FIG. 3F; for IFNγ release / production by T cells with modulated MDSCs: FIG. 3G, FIG. 8B
Experimental: Tlhe myeloid cells, which were stimulated to imlmuno, suppressive MDSCs using GM/G-CSF, were divided into 3 treatment groups: (i) Treatment±250 uM L-fuc prior, duri ng, and after GM/G-CSF stimulation. Treatment±250 uM L-fuc during and after GM/G-CSF stimulation. (ii) Treatment±250 uM L-fuc only after GM/G-CSF stimulation. Greiss assay timepoints reier to hours after initial dose of L-fuc regardless of when cells were treated, L-fuc abrogated their ability to glenerate NO. […] We subsequently co-cultured the modulated MDSCs wilh T cells, which were then activated or not with CD3/CD28 beads and measured for IFNψ production. *. p •<0.05

[4] = test system: BM-myeloid cells; assay: Expression of MDSC biology-related genes in BM-myeloid cells; type: cell-based, mouse; conditions: 24 or 72 hours after initial L-fuc treatment
Experimental: The expression of key MDSC biology-related genes was measured at 24 or 72 hours after in initial L-fuc treatment of the cells. Reductions in ARGI, PARP, and CHOP expression (red boxes; the expression of these genes are known to be required for MDSC immunosuppression. Increase in STAT1 is shown in green.
(§1) Next, we investigated the effect of L-fuc on NO production of bone marrow derived MDSCs (FIGS. 8A and 8B). We observed that L-fuc abrogated NO production in all cases. […] We also wanted to look at how L-fuc treatment effected the expression of immunosuppression genes (FIG. 9). We assessed the expression of key MDSC biology-related genes at 24 or 72 hours after in initial L-fuc treatment of the cells. Generally, we observed reductions in ARGI, PARP, and CHOP expression. In contrast we observed upregulation of STAT1. To further assess how L-fuc/fucosylation affects myeloid phenotype, we modulated fucosylation using DMSO (control), 2-fluoro-fucose (2FIF, fucosylation inhibitor), or L-fuc in mouse bone marrow-derived myeloid progenitors treated ±GM/G-CSF (FIG. 10). We profiled changes In M-MDSC vs. PMN-IMDSC, as well as moDC, as we observed immunostimulatory activity. […] Shown are the average values irom 12 mice. We also observed that L-fucose alters TLR profiles of dendritic cells (FIG. 11).

[5] = test system: mouse bone marrow-derived myeloid progenitors; assay: Myeloid phenotype profiling (M-MDSC, PMN-MDSC, moDC) of bone marrow-derived myeloid progenitors; type: cell-based; conditions: ± GM/G-CSF, average values from 12 mice
Experimental: as §1

SMILES: C[C@H](O)[C@@H](O)[C@@H](O)[C@H](O)C=O [L-fucose]
- efficacy of anti-PD1 in combination with oral L-fuc [1]: did not enhance
- L-fuc-triggered tumor suppression and induction of total itICs ([2]; EB1 knockdown): completely abolished
- control (shNT) tumor growth ([2]; non-targeting shRNA SW1 tumors): impaired
- L-fuc-induced TIL and tumor growth suppression after EB1 knockdown and reconstitution ([2]; shEB1 tumors reconstituted with EB1 WT or N46G): rescued by reconstitution with only WT but not glyco-fucomutant EB1
- T cell proliferation with pretreated splenic MDSCs [3]: increased
- T cell proliferation with pretreated splenic MDSCs ([3]; listed as L-fuc): decreases splenic MDSC immunosuppression
- IFNγ release / production by T cells with modulated MDSCs [3]: increased
- IFNγ release / production by T cells with modulated MDSCs ([3]; listed as L-fuc): significantly stimulated; also recorded: decreases splenic MDSC immunosuppression
- ARGI, PARP, and CHOP expression [4]: reductions
- STAT1 expression [4]: upregulation
- myeloid phenotype (M-MDSC vs. PMN-MDSC, moDC) [5]: enrichment of a monocytic phenotype, including increased moDCs
